Data as given in patent publication US20190369111A1, “MOLECULAR KINETICS EVALUATION METHOD AND SCREENING METHOD” (Tokyo University of Science Foundation, priority 2016, published 2019).

Target: T1, wild-type K-Ras protein (Mus musculus, UniProt P32883)
T1 construct: intraperitoneally administered to C57BL/6J wild-type mice; from tissue; host or cells: C57BL/6J wild-type mice: spleen, pancreas, liver, kidneys, colon, lungs, heart
Assay: Degradation of wild-type K-Ras protein in each tissue of mouse after administration, Western blot analysis
Type: in vivo
Procedure: TUS-007 was dissolved in DMSO, and then dissolved in corn oil so that the concentration of DMSO was 10 vol %, and then intraperitoneally administered to C57BL/6J wild-type mice (8 to 9 weeks old, male) (CLEA Japan, Inc.) in an amount of 40 mg/kg body weight or 80 mg/kg body weight (n=3 to 4). Furthermore, in addition to a group in which TUS-007 was administered, a group in which Ras-SOS had been administered in a dose of 80 mg/kg body weight was prepared. As a control, an injection carrier (corn oil containing 10 vol % DMSO) was used. The mice were kept under an environment of ad libitum access to food and water. The mice were dissected under deep anesthesia by Somnopentyl (Kyoritsu Seiyaku Corporation) 48 hours after administration. Abdominal section was performed, and then the spleen, pancreas, liver, kidneys, colon, lungs, and heart were sequentially extracted and flash frozen in liquid nitrogen. Each tissue frozen in liquid nitrogen was stored in a deep freezer at −80° C.
The frozen tissues (spleen: 0.02 g, other tissues: 0.04 g) were each triturated, and then 500 μL of TKM tissue lysis buffer (50 mM triethanolamine (pH 7.8), 50 mM KCl, 5 mM MgCl2, 0.25 M sucrose, 1 mM PMSF, Protein Inhibitors Cocktail-EDTA free (Nacalai Tesque, Inc.), 1 mM DTT, and a recombinant RNase inhibitor (0.2 U/μL, Takara Bio) were added, and dissolved by rotation for 15 minutes (1 rpm, 25° C.). Then, the resultant product was subjected to centrifugation (at 13800 rpm×30 minutes, 4° C.), and the supernatants (each tissue extract) were collected. The concentration of the extracted proteins was quantified by a spectrophotometer.
Each tissue extract collected was subjected to Western blot analysis. An SDS-PAGE gel was prepared using TGX™ FastCast™ Acrylamide Kit, 12% (Bio-Rad). Electrophoresis samples were prepared in a 6×SDS-PAGE sample buffer (62.5 mM Tris-HCl pH 6.8, 2% SDS, 5% 2-mercaptoethanol, 10% glycerol, 0.25% BPB), and placed on a heat block at 95° C. for 5 minutes. Electrophoresis was performed at 160 V for 60 minutes (electrophoresis buffer; 195 mM glycine, 25 mM Tris).
After electrophoresis, proteins were transferred to a PVDF membrane (Immobion™-P, Millipore) under conditions of 100 V and 1.5 hours using a tank-type blotting device and a transfer buffer (25 mM Tris-HCl, 195 mM glycine, 0.01% SDS, 15% methanol). The membrane was split into two at the position of a 25 kDa marker. The membrane after transfer was shaken and blocked in 5% skim milk/TBS-T (100 mM Tris-HCl, 150 mM NaCl, 0.1% Tween-20, pH 7.6) at room temperature for 30 minutes. After blocking, a primary antibody reaction was performed in 5% skim milk/TBS-T. As the primary antibody, an anti-K-Ras antibody (sc-30, SantaCruz, diluted 500 times) and an anti-GAPDH antibody (sc-32233, SantaCruz, diluted 20000 times) were used. The membrane was shaken at room temperature for 60 minutes (anti-K-Ras antibody) or at 4° C. overnight (anti-GAPDH antibody), and then the membrane was washed with TBS-T for 5 minutes. It is noted that washing was performed four times. After the primary antibody reaction, a secondary antibody reaction was performed in 1% skim milk/TBS-T. The membrane was shaken at room temperature for 30 minutes, and then the membrane was washed with TBS-T for 5 minutes. It is noted that washing was performed four times. Furthermore, the membrane was washed with TBS (100 mM Tris-HCl, 150 mM NaCl, pH 7.6) for 10 minutes. Subsequently, the membrane was treated with a chemiluminescence reagent Immobilon™ Western (Millipore), and then chemiluminescence was detected using a lumino image analyzer LAS-3000 (FUJIFILM Corporation). Detected bands were quantified with an image processing software ImageJ (NIH).

T1 sequence (P32883 whole entry): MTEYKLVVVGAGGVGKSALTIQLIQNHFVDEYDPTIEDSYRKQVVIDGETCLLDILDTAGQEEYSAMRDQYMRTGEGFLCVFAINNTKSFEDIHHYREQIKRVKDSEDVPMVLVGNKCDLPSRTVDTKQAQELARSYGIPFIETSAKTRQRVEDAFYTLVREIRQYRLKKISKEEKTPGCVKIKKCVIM

`CC[C@@H](C)[C@H](NC(=O)CCCCCCNC(=O)[C@H](CC(C)C)NC(=O)CNC(=O)c1cc(Cl)ccc1Cl)C(=O)Nc1ccc2[nH]c(Cc3c[nH]c4ccccc34)nc2c1` [TUS-007] was tested, and the “amount of wild-type K-Ras protein in colon” value (intraperitoneal 40 or 80 mg/kg body weight, 48 hours after administration, colon) was “reduced in a concentration dependent manner”, the “amount of wild-type K-Ras protein in heart” value (intraperitoneal 40 or 80 mg/kg body weight, 48 hours after administration, heart) was “not reduced” and the “amount of wild-type K-Ras protein in kidneys” value (intraperitoneal 40 or 80 mg/kg body weight, 48 hours after administration, kidneys) was “reduced in a concentration dependent manner”. For the same compound, the “amount of wild-type K-Ras protein in liver” value (intraperitoneal 40 or 80 mg/kg body weight, 48 hours after administration, liver) was “not reduced”, the “amount of wild-type K-Ras protein in lungs” value (intraperitoneal 40 or 80 mg/kg body weight, 48 hours after administration, lungs) was “not reduced” and the “amount of wild-type K-Ras protein in pancreas” value (intraperitoneal 40 or 80 mg/kg body weight, 48 hours after administration, pancreas) was “reduced in a concentration dependent manner”. The “amount of wild-type K-Ras protein in spleen” value (intraperitoneal 40 or 80 mg/kg body weight, 48 hours after administration, spleen) was “reduced in a concentration dependent manner” and the “transfer property to tissues (molecular kinetics)” value (suggested from K-Ras degradation in tissues) was “showed a higher transfer property in the pancreas, colon, kidneys, and spleen as compared with the lungs, liver, and heart”.
